{"source": "ChEMBL document CHEMBL1136618", "about": "“Bis(acridinylthiourea)platinum(II) complexes: synthesis, DNA affinity, and biological activity in glioblastoma cells” (Bioorg Med Chem Lett, 2003)", "test_system": "Nucleic Acid", "experiment": "Intrinsic binding constant in calf thymus DNA", "assay_type": "nucleic-acid assay, Bos taurus", "data": [{"smiles": "CNc1c2ccccc2nc2ccccc12", "values": [{"measurement": "Kb", "value": 110000, "unit": "M⁻¹"}]}, {"smiles": "CNC(=S)N(C)CCNc1c2ccccc2nc2ccccc12", "values": [{"measurement": "Kb", "value": 1500000, "unit": "M⁻¹"}]}]}
